In one assay the test system is Candida albicans. Put plainly: Antifungal activity against amphotericin B-resistant Candida albicans after 12 to 15 hrs by alamar blue assay. Format: functional, organism-based. On the technique in general: Alamar Blue is a resazurin reagent that responds to reducing activity.
A further assay concerns DU-4475. Put plainly: Antineoplastic activity against human DU4475 cells after 72 hrs by MTS reduction assay. Format: functional, cell-based. To be noted: DU-4475, 72 h.

The structures appear in SMILES notation.

From ChEMBL document CHEMBL1157939, “Bromophycolides C-I from the Fijian red alga Callophycus serratus” (J Nat Prod, 2006) come the findings set out here.

One may read the IC50 as the concentration that inhibits the measured activity by half. A higher IC50 goes with lower potency.

For `C=C1CC[C@H](Br)[C@@]2(C)CC[C@@H]3O[C@@]3(C)CC[C@@H](C(C)(C)O)OC(=O)c3ccc(O)c(c3)C[C@H]12` [BROMOPHYCOLIDE F], inhibition with Candida albicans was half-maximal at 240 µM (IC50). In the assay with Candida albicans, `C=C1CC[C@H](Br)[C@@]2(C)CC[C@@H](Br)[C@@](C)(O)CC[C@H](O)C(C)(C)OC(=O)c3ccc(O)c(c3)C[C@H]12` [BROMOPHYCOLIDE I] came in with an IC50 of 208 µM. The IC50 values of the last two compounds are within 1.5-fold of each other. `C=C1CC[C@H](Br)[C@@]2(C)CC[C@@H](Br)[C@@](C)(O)CC[C@@H](Br)C(C)(C)OC(=O)c3ccc(O)c(c3)C[C@H]12` [BROMOPHYCOLIDE H] had an IC50 with DU-4475 of 3.88 µM.
